The text below walks through data of paper PMC3544269 (2012).

Test [1] deals with #13_83 (group 3 representative) (DNA, aptamer) ATACCAGCTTATTCAATTGGGGAGATCTTGAGGCTCGATCGATAGTAGCTGTGACAGTCTACGTTTTATGGTATGCGGGTAGATAGTAAGTGCAATCT
Kind of test: fluorescent aptamer release from capture-oligo magnetic beads. To be noted: 100 mM NaCl, 5 mM KCl, 2 mM MgCl2, 1 mM CaCl2; 20 mM Tris-HCl pH 7.6, 21 °C; capture oligo i-ODN2Sp; 1 mM compound; threshold 1 pmol eluted.

Test [2] has as its system #3_18 (group 7) (DNA, aptamer) ATACCAGCTTATTCAATTAGCATGGTGCTGAGGCTTGATCTGGAGGTCGTGAACGAAAATTGGTCGTTTAGTTGGCTCGTAGATAGTAAGTGCAATCT
The description is as above. To be noted: 100 mM NaCl, 5 mM KCl, 2 mM MgCl2, 1 mM CaCl2; 20 mM Tris-HCl pH 7.6, 21 °C; capture oligo i-ODN2Sp; 1 mM compound; threshold 1 pmol eluted.

The subject of test [3] is #3_7 (group 1) (DNA, aptamer) ATACCAGCTTATTCAATTGGTGGTAGGATGGGCTCGATCGAGGTCTTCAGTCGGCTCGGTTTAGTTTATGTTCTCCTGTAGATAGTAAGTGCAATCT
The description is as above. To be noted: 100 mM NaCl, 5 mM KCl, 2 mM MgCl2, 1 mM CaCl2; 20 mM Tris-HCl pH 7.6, 21 °C; capture oligo i-ODN2Sp; 1 mM compound; threshold 1 pmol eluted.

Test [4] has the same test system. In words: fluorescent aptamer release from capture-oligo magnetic beads, one-site fit. The following applies: 100 mM NaCl, 5 mM KCl, 2 mM MgCl2, 1 mM CaCl2; 20 mM Tris-HCl pH 7.6, 21 °C; capture oligo i-ODN2Sp displaced; apparent; kanamycin A 0-1.5 mM.

On to `CC(C)NCC(O)c1ccc(NS(C)(=O)=O)cc1` (stereo not drawn), for which the binding entry in test [1], in test [2] and in test [3] was “no” each time.
On to `Cc1cc(NS(=O)(=O)c2ccc(N)cc2)no1`, for which the binding entry in test [1], in test [2] and in test [3] was “no” in each case.
`NC(=O)NS(=O)(=O)c1ccc(N)cc1`: the binding entry in test [1], in test [2] and in test [3] was “no” throughout.
In the case of `NC[C@H]1O[C@H](O[C@H]2[C@H](O)[C@@H](O[C@H]3O[C@H](CO)[C@@H](O)[C@H](N)[C@H]3O)[C@H](N)C[C@@H]2N)[C@H](O)[C@@H](O)[C@@H]1O`, in test [4], the KD is 24 µM. The binding entry in test [1] is “no”; in test [2] it was “yes”.
